ChEMBL document CHEMBL1127866, “Cyclopentanespiro-3H-dihydro-pyrimidinones as Angiotensin II AT1 receptor antagonists” (Bioorg Med Chem Lett, 1994)

Assays:
[1] = biological target: T1, Type-1 angiotensin II receptor B (Rattus norvegicus, UniProt P29089); experiment: In vitro inhibition of specific binding of [125I]AII to Angiotensin II receptor, type 1 from rat liver membrane
T1 sequence (P29089 whole entry): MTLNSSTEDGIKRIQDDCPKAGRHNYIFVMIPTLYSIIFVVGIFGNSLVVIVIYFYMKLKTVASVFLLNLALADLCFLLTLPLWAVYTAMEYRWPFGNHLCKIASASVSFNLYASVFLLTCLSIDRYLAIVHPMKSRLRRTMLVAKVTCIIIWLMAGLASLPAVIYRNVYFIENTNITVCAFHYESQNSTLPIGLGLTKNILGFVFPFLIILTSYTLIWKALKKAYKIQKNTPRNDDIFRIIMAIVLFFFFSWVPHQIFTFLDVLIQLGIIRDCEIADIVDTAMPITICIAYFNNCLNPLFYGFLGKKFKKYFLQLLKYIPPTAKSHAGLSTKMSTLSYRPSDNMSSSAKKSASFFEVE

Monkey [2] = experiment: Tested for induced pressor response to AII (100 ng/kg, iv) in conscious normotensive monkey at a compound dose of 3 mg/kg po for 5 hr; type: functional, Cercopithecidae
Rattus norvegicus [3] = experiment: Tested for induced pressor response to AII (40 ng/kg, iv) in conscious normotensive rats at a compound dose of 3 mg/kg po for 60 min; type: functional
Monkey [4] = experiment: Tested for induced pressor response to AII (100 ng/kg, iv) in conscious normotensive monkey at a compound dose of 3 mg/kg po for 3 hr; type: functional, Cercopithecidae
Monkey [5] = experiment: Tested for induced pressor response to AII (100 ng/kg, iv) in conscious normotensive monkey at a compound dose of 3 mg/kg po for 2 hr; type: functional, Cercopithecidae
Rattus norvegicus [6] = experiment: Tested for induced pressor response to AII (40 ng/kg, iv) in conscious normotensive rats at a compound dose of 3 mg/kg po for 0 min; type: functional
Rattus norvegicus [7] = experiment: Tested for induced pressor response to AII (40 ng/kg, iv) in conscious normotensive rats at a compound dose of 3 mg/kg po for 180 min; type: functional
Rattus norvegicus [8] = experiment: Tested for induced pressor response to AII (40 ng/kg, iv) in conscious normotensive rats at a compound dose of 3 mg/kg po for 90 min; type: functional
Rattus norvegicus [9] = experiment: Tested for induced pressor response to AII (40 ng/kg, iv) in conscious normotensive rats at a compound dose of 3 mg/kg po for 30 min; type: functional
Rattus norvegicus [10] = experiment: Tested for induced pressor response to AII (40 ng/kg, iv) in conscious normotensive rats at a compound dose of 3 mg/kg po for 120 min; type: functional
Monkey [11] = experiment: Tested for induced pressor response to AII (100 ng/kg, iv) in conscious normotensive monkey at a compound dose of 3 mg/kg po for 4 hr; type: functional, Cercopithecidae
Monkey [12] = experiment: Tested for induced pressor response to AII (100 ng/kg, iv) in conscious normotensive monkey at a compound dose of 3 mg/kg po for 0 hr; type: functional, Cercopithecidae
Monkey [13] = experiment: Tested for induced pressor response to AII (100 ng/kg, iv) in conscious normotensive monkey at a compound dose of 3 mg/kg po for 1 hr; type: functional, Cercopithecidae
Rattus norvegicus [14] = experiment: Tested for induced pressor response to AII (40 ng/kg, iv) in conscious normotensive rats at a compound dose of 3 mg/kg po for 15 min; type: functional

CCCCC1=NC(=O)C2(CCCC2)CN1Cc1ccc(-c2ccccc2C(=O)O)cc1
IC50 [1]: 1300 nM

CCCCC1=NC2(CCCC2)CC(=O)N1Cc1ccc(-c2ccccc2C(=O)O)cc1
IC50 [1]: 53 nM

CCCCC1=NC2(CCCC2)C(=O)N1Cc1ccc(-c2ccccc2-c2nnn[nH]2)cc1 [IRBESARTAN]
Delta MAP (Monkey [2]): ~25 mmHg | Delta MAP (Rattus norvegicus [3]): ~20 mmHg | Delta MAP (Monkey [4]): ~18 mmHg | Delta MAP (Monkey [5]): ~15 mmHg | Delta MAP (Rattus norvegicus [6]): ~45 mmHg | Delta MAP (Rattus norvegicus [7]): ~17 mmHg | Delta MAP (Rattus norvegicus [8]): ~17 mmHg | Delta MAP (Rattus norvegicus [9]): ~22 mmHg | Delta MAP (Rattus norvegicus [10]): ~18 mmHg | Delta MAP (Monkey [11]): ~23 mmHg | Delta MAP (Monkey [12]): ~33 mmHg | Delta MAP (Monkey [13]): ~9 mmHg | Delta MAP (Rattus norvegicus [14]): ~22 mmHg

CCCCC1=NCC2(CCCC2)C(=O)N1Cc1ccc(-c2ccccc2C(=O)O)cc1
IC50 [1]: 71 nM

CCCCC1=NC2(CCCC2)C(C)(C)C(=O)N1Cc1ccc(-c2ccccc2-c2nnn[nH]2)cc1
IC50 [1]: 2.2 nM

CCCCC1=NC2(CCCC2)CC(=O)N1Cc1ccc(-c2ccccc2-c2nn[nH]n2)cc1
Delta MAP (Rattus norvegicus [3]): ~14 mmHg | Delta MAP (Monkey [4]): ~29 mmHg | Delta MAP (Monkey [5]): ~29 mmHg | Delta MAP (Rattus norvegicus [6]): ~35 mmHg | Delta MAP (Rattus norvegicus [7]): ~17 mmHg | Delta MAP (Rattus norvegicus [8]): ~18 mmHg | Delta MAP (Rattus norvegicus [9]): ~15 mmHg | Delta MAP (Rattus norvegicus [10]): ~15 mmHg | Delta MAP (Monkey [11]): ~32 mmHg | Delta MAP (Monkey [12]): ~33 mmHg | Delta MAP (Monkey [13]): ~27 mmHg | IC50 [1]: 1 nM | Delta MAP (Rattus norvegicus [14]): ~10 mmHg
